# Measurements taken from the NIST ThermoML archive (doi:10.1016/j.jct.2006.02.008).
# Numbers after ± are expanded uncertainties.
# Assays:
# [1] = refractive index (Na D-line) (dimensionless); details: 293.2 K; 101.33 kPa; Liquid; Standard Abbe refractometry
"Normal melting temperature (Crystal, visual observation) [°C]",Compound,"mass density (293.2 K, 101.33 kPa, Liquid, Pycnometric method) [kg/m3]",refractive index [1]
–,CCOC(=O)c1ccccc1C(=O)OCC [diethyl phthalate],1118.2 ± 1,1.5016 ± 0.0007
52.7 ± 0.5,O=C1C=CC(=O)O1 [maleic anhydride],–,–
